According to ChEMBL document CHEMBL3045694, “Insecticidal activity and chemical composition of volatile oils from Hyptis martiusii Benth” (2003):

Key:
Assay type in all cases: functional
Aedes aegypti [1] = experiment: Larvicidal activity against third larval stage of Aedes aegypti assessed as mortality at 50 mg/L after 24 hr
Aedes aegypti [2] = experiment: Larvicidal activity against third larval stage of Aedes aegypti assessed as mortality at 500 mg/L after 24 hr
Aedes aegypti [3] = experiment: Larvicidal activity against third larval stage of Aedes aegypti assessed as mortality at 100 mg/L after 24 hr
Aedes aegypti [4] = experiment: Larvicidal activity against third larval stage of Aedes aegypti assessed as mortality at 250 mg/L after 24 hr
Bemisia argentifolii [5] = experiment: Insecticidal activity against adult Bemisia argentifolii reared on compound-treated melon leaves assessed as layed eggs at 1000 mg/L applied as spray after 72 hr
Aedes aegypti [6] = experiment: Larvicidal activity against third larval stage of Aedes aegypti assessed as mortality at 25 mg/L after 24 hr
Bemisia argentifolii [7] = experiment: Insecticidal activity against adult Bemisia argentifolii reared on compound-treated melon leaves assessed as mortality at 1000 mg/L applied as spray after 72 hr

Which results are given for `CC12CCC(CC1)C(C)(C)O2` [EUCALYPTOL]?
mortality at 50 µg/mL (Aedes aegypti [1]): 53%; mortality at 500 µg/mL (Aedes aegypti [2]): 100%; mortality at 100 µg/mL (Aedes aegypti [3]): 100%; mortality at 250 µg/mL (Aedes aegypti [4]): 100%; Activity (Bemisia argentifolii [5]): 9.2%; mortality at 25 µg/mL (Aedes aegypti [6]): 10%; mortality at 1000 µg/mL (Bemisia argentifolii [7]): 91.2%
